Reference: patent US8299126B2, “Treatment of canine hemangiosarcoma with a histone deacetylase inhibitor” (priority 2003, dated 2012)
Where “and” joins values, the source holds several entries; their conditions need not be identical. Equal entries are not always repeated. Where two headings read alike, the source gives them in different places.

Legend:
[1] = Follow-up blood chemistry and hematology of the SAHA-treated dog; type: in vivo, canine
Text: Approximately one month post-splenectomy, the dog was examined and found to be in good condition. […] The platelet count was above the normal range 550, (reference range, 100-450).
(§1) A little over 7 months post-splenectomy, the dog was examined for possible signs of metastasis by chest X-Ray, abdominal ultrasound, echogram, urinalysis and CBC.

[2] = tested on: NMU-induced rat mammary tumors; settings: cited from earlier work
General toxicity of SAHA = test: General toxicity of SAHA
Text: The daily dosage of the compound of the present invention may vary according to a variety of factors such as underlying disease states, the individual's type, species, and medical condition, weight, sex, age, the severity of the condition to be treated; the route of administration; and the particular compound thereof employed. […] A physician or veterinarian of ordinary skill can readily determine and prescribe the effective amount of the drug required to prevent, counter or arrest the progress of the condition. Optimal precision in achieving concentrations of drug within the range that yields efficacy without toxicity requires a regimen based on the kinetics of the drug's availability to target sites. This involves consideration of the absorption, distribution, metabolism, and excretion of a drug, which are readily quantified.

[3] = Stability at room temperature and solubility of the active compound; type: physicochemical
Text: Suitable preparations of such compositions include emulsions or solid forms suitable for emulsion. As used herein “solid forms” include powders and finely divided particles. Due to the insoluble nature of the active compound, e.g., SAHA, the preferred preparation is in the form of a powder.
(§2) Therefore, it may be possible with further studies to better understand the effect of SAHA on the vascularization of tumors, not only in canines, but perhaps in humans as well.

[4] = tested on: human prostate cancer cells; settings: mouse xenograft model (Butler et al. 2000); cited from earlier work
canine hemangiosarcoma = type: in vivo
Experimental: The present invention is based in part on a case study of a dog having hemangiosarcoma. In the case study, SAHA was administered to the dog at a dose of 100 mg per day (about 3.3 mg/kg/day) post-splenectomy, mixed as a dry powder in dog food. The dog remains in good health more than 400 days post-splenectomy.
A 75 pound (33.75 kg), 12 year old female Rhodesian Ridgeback-Pit Bull mix was diagnosed with hemangiosarcoma. Symptoms included unexplained weakness, pale color to the mucous membranes of the mouth, lack of appetite and excessive consumption of water. The dog was brought to an emergency veterinary center, where X-ray and sonogram examination indicated a multi-lobulated mass on the spleen. An emergency splenectomy was performed, during which approximately 1 liter of blood was aspirated from the body cavity. There was no gross evidence of metastases in the liver or heart and a liver biopsy was taken. […] Nuclei were mildly pleomorphic, oval and had prominent nucleoli. Mitoses were occasionally present. Extramedullary hematopoiesis was present throughout and large areas of hemorrhage and necrosis was typical. The tumor was multifocal throughout the spleen. Pathology results were reported as hemangiosarcoma, grade 1, spleen, with a normal liver.
Starting approximately 2 weeks after splenectomy, when signs of weakness had re-appeared, SAHA was administered in the diet at 100 mg/day, 7 days/week. The dose was based on a rough extrapolation from rat studies. The diet consisted of a cup of standard pelleted dog food (Solid Gold, Hund-n-Flocken), a teaspoonful of brewers yeast (Foster and Smith, Rhinelander, Wis.), 1-2 ml of an essential fatty acid mixture containing n-6 and n-3 PUFA (Foster and Smith), and 2 tablespoonfuls of wet dog food (Pedigree®, Kal Kan Foods, Inc., CA), in which the SAHA was administered.
Within 24 hrs, there was an immediate, observable decrease in weakness and lethargy. […] For three months from diagnosis, the dog went through periods of high alertness and activity punctuated by brief periods of mild lethargy.
as §1

[5] = Analyzed urine output: removal, half-life and metabolism of SAHA; type: in vivo
Text: as §2

hemangiosarcoma = settings: canines, surgery and chemotherapy with doxorubicin; cited from earlier work
[6] = added to the diet, chemopreventive (Cohen et al., 1999)

O=C(CCCCCCC(=O)Nc1ccccc1)NO [SAHA, suberoylanilide hydroxamic acid]
bands neutrophils ([1]; a little over 7 months post-splenectomy, range 0-3): 6 | RBC ([1]; a little over 7 months post-splenectomy, range 5.5-8.5): 4.98 10^6/µL | segmented neutrophil ([1]; a little over 7 months post-splenectomy, range 32-36): 36.5 | Hematocrit ([1]; a little over 7 months post-splenectomy, range 37-55): 35.3% | alkaline phosphatase ([1]; a little over 7 months post-splenectomy, reference range 10-150): 3 U/L | RBC ([1]; approximately one month post-splenectomy, range 5-8): 4.96 10^6/µL | hemoglobin ([1]; approximately one month post-splenectomy, range 14-21): 13.2 g/dL | LDH ([1]; approximately one month post-splenectomy, reference range 50-550): 49 U/L | platelet count ([1]; approximately one month post-splenectomy, reference range 100-450): 550 10^3/µL | effect on time of appearance, incidence, multiplicity and total number of NMU-induced rat mammary tumors [2, 6]: significantly inhibit | side effects [2, 6]: no deleterious side effects | effect on established rat mammary tumors ([2]; administered in the diet, chemotherapeutic (Cohen et al., 2002)): decrease the size, slow the growth rate and, in some cases, induce the complete regression | side effects ([2]; administered in the diet, established tumors (Cohen et al., 2002)): no toxic side effects | toxicity (General toxicity of SAHA): almost no measurable toxicity other than possible fatigue at high doses | solubility [3]: insoluble | stability at room temperature ([3]; room temperature): stable at room temperature | tumor growth [4]: inhibited tumor growth | signs of decreased energy after dose increase (canine hemangiosarcoma; SAHA increased to 110 mg/day): no signs of decreased energy | signs of metastasis by chest X-Ray, abdominal ultrasound, echogram, urinalysis and CBC (canine hemangiosarcoma; a little over 7 months post-splenectomy): no evidence of dissemination | time to observable decrease in weakness and lethargy (canine hemangiosarcoma; after start of SAHA 100 mg/day in the diet, about 2 weeks after splenectomy): ≤ 24 h | time the dog remains in good health post-splenectomy (canine hemangiosarcoma; one dog with hemangiosarcoma, SAHA 100 mg per day (about 3.3 mg/kg/day), later 110 mg/day, in dog food): more than 400 days and 400 days | duration of suppression of metastatic dissemination of neoplastic endothelial cells post-splenectomy (canine hemangiosarcoma; one dog, SAHA daily in diet): 210 days | half-life ([5]; from analyzed urine output): approximately three to four | removal from the body ([5]; from analyzed urine output): rapidly removed from the body | metabolism by the animal ([5]; in vivo): not readily metabolized

COc1cccc2c1C(=O)c1c(O)c3c(c(O)c1C2=O)C[C@@](O)(C(=O)CO)C[C@@H]3O[C@H]1C[C@H](N)[C@H](O)[C@H](C)O1 [doxorubicin]
prognosis once diagnosed (hemangiosarcoma): less than six
